Data reported in publication PMC9944328 (Nature Communications, 2023).
pEC50: −log10 of the molar value. Like-named read-outs stand apart in the source and are kept apart here.

Tested on: SSTR2 mutants
Test: SSTRs Gi-mediated cAMP inhibition, GloSensor, HEK293, 5 μM forskolin, 15 min room temperature (SSTR2 mutants)
Type: cell-based, human
Design: Best-fit Bottom, cAMP inhibition / Best-fit Top, cAMP inhibition / Span, cAMP inhibition / Bottom (best-fit value) / Top (best-fit value) / Span (best-fit value) / Span (best-fit) / Bottom (best-fit) / Top (best-fit) / Best-fit Bottom / Best-fit Top / Best-fit Span / Top / Span: scale not given here
Experimental: The levels of the intracellular 3′, 5′-cyclic AMP (cAMP) were measured by the GloSensor cAMP assay (Promega) as described in the previous studies[28],[41] which has been widely used. The human full-length SSTRs and mutants were cloned into the pcDNA3.1+ vector with a HA signal sequence followed by a Flag tag at the N-terminus. HEK293 cells (ATCC, CRL-1573) were seeded into 6-well microplates at a density of 1.0 × 10^6 cells/well and cultured for 24 h at 37 °C with 5% CO2. Cells were then co-transfected with SSTR wild-type or mutants and GloSensor plasmids. After 24 h of transfection, the cells were dissociated with TrypLE™ Express Enzyme (1X) (Thermo Fisher Scientific) and collected by centrifugation at 500 × g for 5 min. Then the collected cells were suspended in Hank’s balanced salt solution [HBSS (Thermo Fisher Scientific)] supplemented with […] (YEASEN), and then the suspension cells were seeded into 96-well plates with 90 μl/well. After incubating at room temperature for 40 min, 5 μM forskolin and ligands diluted in HBSS were added to each well and the plates were incubated at room temperature for 15 min. […] were measured using the Synergy H1 microplate reader (BioTek) and the data presented are means of at least three independent experiments.

C[C@@H](O)[C@@H]1NC(=O)[C@H](CCCCN)NC(=O)[C@@H](Cc2c[nH]c3ccccc23)NC(=O)[C@H](Cc2ccccc2)NC(=O)[C@@H](NC(=O)[C@H](N)Cc2ccccc2)CSSC[C@@H](C(=O)N[C@H](CO)[C@@H](C)O)NC1=O [octreotide]
Top (best-fit value) (I284A-1, run 1): 116.3 | pEC50 (I284A-1, run 1, read-out: EC50 (best-fit value)): 8.87 | Bottom (best-fit value) (I284A-2, run 2): -11.95 | LogEC50 (best-fit value) (I284A-2, run 2): -9.363 | Span (best-fit value) (I284A-2, run 2): 136.5 | Top (best-fit value) (I284A-2, run 2): 124.6 | pEC50 (I284A-2, run 2, read-out: EC50 (best-fit value)): 9.36 | Bottom (best-fit value) (I284A-3, run 3): -6.083 | LogEC50 (best-fit value) (I284A-3, run 3): -8.813 | Span (best-fit value) (I284A-3, run 3): 75.58 | Top (best-fit value) (I284A-3, run 3): 69.5 | pEC50 (I284A-3, run 3, read-out: EC50 (best-fit value)): 8.81 | Impact on Gi protein pathway (I284ECL3A and K291(7.32)A): relatively small | Best-fit Bottom (K291A-1): -13.76 | Best-fit Span (K291A-1): 86.2 | Best-fit Top (K291A-1): 72.44 | LogEC50 (K291A-1): -8.384 | pEC50 (K291A-1, read-out: EC50): 8.40 | Best-fit Bottom (K291A-2): -3.629 | Best-fit Span (K291A-2): 91.53 | Best-fit Top (K291A-2): 87.9 | LogEC50 (K291A-2): -8.328 | pEC50 (K291A-2, read-out: EC50): 8.33 | Best-fit Bottom (K291A-3): 3.692 | Best-fit Span (K291A-3): 104.2 | Best-fit Top (K291A-3): 107.9 | LogEC50 (K291A-3): -8.123 | pEC50 (K291A-3, read-out: EC50): 8.12 | Best-fit Bottom (L290A-1): 32.91 | Best-fit Span (L290A-1): 84.91 | Best-fit Top (L290A-1): 117.8 | LogEC50 (L290A-1): -9.231 | pEC50 (L290A-1, read-out: EC50): 9.23 | Best-fit Span (L290A-2): 90.85 | Best-fit Top (L290A-2): 95.5 | LogEC50 (L290A-2): -9.519 | Best-fit Bottom (L290A-3): 2.997 | Best-fit Span (L290A-3): 94.23 | Best-fit Top (L290A-3): 97.22 | LogEC50 (L290A-3): -9.438 | pEC50 (L290A-3, read-out: EC50): 9.44 | Gi signaling of mutant (N276(6.55)A): still exerted Gi signaling activation | Bottom (best-fit) (N276A-1): -14.21 | LogEC50 (best-fit) (N276A-1): -7.981 | Span (best-fit) (N276A-1): 75.87 | Top (best-fit) (N276A-1): 61.65 | pEC50 (N276A-1, read-out: EC50 (best-fit)): 7.98 | Bottom (best-fit) (N276A-2): 0.8581 | LogEC50 (best-fit) (N276A-2): -7.561 | Span (best-fit) (N276A-2): 112.9 | Top (best-fit) (N276A-2): 113.7 | pEC50 (N276A-2, read-out: EC50 (best-fit)): 7.56 | Bottom (best-fit) (N276A-3): 2.316 | LogEC50 (best-fit) (N276A-3): -7.587 | Span (best-fit) (N276A-3): 109.8 | Top (best-fit) (N276A-3): 112.1 | pEC50 (N276A-3, read-out: EC50 (best-fit)): 7.59 | Bottom (best-fit) (P220A-1): 19.71 | LogEC50 (best-fit) (P220A-1): -9.136 | Span (best-fit) (P220A-1): 47.88 | Top (best-fit) (P220A-1): 67.58 | pEC50 (P220A-1, read-out: EC50 (best-fit)): 9.14 | Bottom (best-fit) (P220A-2): 10.44 | LogEC50 (best-fit) (P220A-2): -8.311 | Span (best-fit) (P220A-2): 101.1 | Top (best-fit) (P220A-2): 111.6 | pEC50 (P220A-2, read-out: EC50 (best-fit)): 8.31 | Bottom (best-fit) (P220A-3): 7.137 | LogEC50 (best-fit) (P220A-3): -8.347 | Span (best-fit) (P220A-3): 101.3 | Top (best-fit) (P220A-3): 108.4 | pEC50 (P220A-3, read-out: EC50 (best-fit)): 8.35 | Bottom (best-fit value) (P286A-1, run 1): -1.561 | LogEC50 (best-fit value) (P286A-1, run 1): -9.311 | Span (best-fit value) (P286A-1, run 1): 110.5 | Top (best-fit value) (P286A-1, run 1): 108.9 | pEC50 (P286A-1, run 1, read-out: EC50 (best-fit value)): 9.31 | Bottom (best-fit value) (P286A-2, run 2): -0.685 | LogEC50 (best-fit value) (P286A-2, run 2): -9.269 | Span (best-fit value) (P286A-2, run 2): 107.2 | Top (best-fit value) (P286A-2, run 2): 106.5 | pEC50 (P286A-2, run 2, read-out: EC50 (best-fit value)): 9.27 | Bottom (best-fit value) (P286A-3, run 3): -0.6493 | LogEC50 (best-fit value) (P286A-3, run 3): -9.076 | Span (best-fit value) (P286A-3, run 3): 92.48 | Top (best-fit value) (P286A-3, run 3): 91.83 | pEC50 (P286A-3, run 3, read-out: EC50 (best-fit value)): 9.08 | Best-fit Bottom (S279A-1): 9.876 | Best-fit Span (S279A-1): 98.05 | Best-fit Top (S279A-1): 107.9 | LogEC50 (S279A-1): -9.015 | pEC50 (S279A-1, read-out: EC50): 9.02 | Best-fit Span (S279A-2): 101.7 | Best-fit Top (S279A-2): 106.6 | LogEC50 (S279A-2): -8.897 | pEC50 (S279A-2, read-out: EC50): 8.90 | Best-fit Bottom (S279A-3): 4.156 | Best-fit Span (S279A-3): 86.31 | Best-fit Top (S279A-3): 90.47 | LogEC50 (S279A-3): -8.897 | Bottom (best-fit value) (S285A-1, run 1): 7.122 | LogEC50 (best-fit value) (S285A-1, run 1): -9.176 | Span (best-fit value) (S285A-1, run 1): 90.01 | Top (best-fit value) (S285A-1, run 1): 97.13 | pEC50 (S285A-1, run 1, read-out: EC50 (best-fit value)): 9.18 | Bottom (best-fit value) (S285A-2, run 2): 7.037 | LogEC50 (best-fit value) (S285A-2, run 2): -9.15 | Span (best-fit value) (S285A-2, run 2): 69.44 | Top (best-fit value) (S285A-2, run 2): 76.48 | pEC50 (S285A-2, run 2, read-out: EC50 (best-fit value)): 9.15 | Bottom (best-fit value) (S285A-3, run 3): -3.857 | LogEC50 (best-fit value) (S285A-3, run 3): -9.167 | Span (best-fit value) (S285A-3, run 3): 92.79 | Top (best-fit value) (S285A-3, run 3): 88.94 | pEC50 (S285A-3, run 3, read-out: EC50 (best-fit value)): 9.17 | Best-fit Bottom, cAMP inhibition (SSTR2 I195A-1, run 1): 1.138
